Experimental data taken from ChEMBL document CHEMBL1828514, “Comparison of the reactivity of antimalarial 1,2,4,5-tetraoxanes with 1,2,4-trioxolanes in the presence of ferrous iron salts, heme, and ferrous iron salts/phosphatidylcholine” (J Med Chem, 2011).
The source made the active and inactive calls. The rule behind the calls is not given here.

Key:
Plasmodium falciparum = assay: Antimalarial activity against Plasmodium falciparum 3D7 assessed as inhibition of [3H]hypoxanthine incorporation after 48 hrs by liquid scintillation counting; format: functional, organism-based
[1] = Induction of 2-Linoleoyl-1-palmitoyl-sn-phosphotidylcholine peroxidation in the presence of Ferrous sulphate after 24 hrs by LC/MS analysis; format: functional
[2] = Chemical stability of the compound assessed as iron-mediated decomposition after 24 hrs by LC/MS analysis; format: physicochemical
[3] = Induction of alkylated heme adduct formation from reaction with ferrous heme by LC/MS analysis
[4] = Induction of oxyl radical formation from reaction with ferrous heme assessed as decrease in heme concentration by HPLC analysis relative to control; format: physicochemical; parameters: scale not given: the % may be the effect or the level left
[5] = Induction of oxyl radical formation from reaction with iron(2) gluconate after 12 hrs by LC/MS analysis; format: physicochemical
[6] = Induction of 2-Linoleoyl-1-palmitoyl-sn-phosphotidylcholine peroxidation in the presence of ferrous sulphate after 24 hrs by ESI/MS analysis; format: functional
[7] = Induction of formation of Manganese-TPC adduct from reaction with manganese(2) tetraphenylporphyrin; format: physicochemical
[8] = Induction of formation of chlorin-type adduct from reaction with iron(2) tetraphenylporphyrin; format: physicochemical
[9] = Induction of TEMPO adduct formation after 24 hrs in presence of 2,2,6,6-tetramethyl-1-piperidine-1-oxyl and ferrous sulfate by LC/MS analysis
[10] = Induction of formation of demetalated adduct from reaction with iron(2) tetraphenylporphyrin; format: physicochemical
[11] = Induction of oxyl radical formation from reaction with ferrous salt in the presence of 2,2,6,6-tetramethyl-1-piperidine-1-oxyl after 24 hrs by spin-trapping and LC/MS analysis; format: physicochemical

In the case of `CC(C)CN1CCN(C(=O)C[C@H]2CC[C@]3(CC2)OO[C@]2(O3)C3CC4CC(C3)CC2C4)CC1`, the IC50 (Plasmodium falciparum) is reported as 2.1 nM, the Activity [1] is reported as “Active” and the Stability [2] is reported as “Unstable”. The Activity [3] was “Active”.
With `O=C(CC1CCC2(CC1)OOC1(OO2)C2CC3CC(C2)CC1C3)N1CCN(C2CCNCC2)CC1` (centres undefined) the IC50 (Plasmodium falciparum) was 0.4 nM, the Activity [1] was “Active” and the Stability [2] was “Unstable”. For the same compound, the Activity [3] was “Active” and the Activity [4] was 38%.
With `O=C(CC1CCC2(CC1)OOC1(OO2)C2CC3CC(C2)CC1C3)NCc1ccc(F)cc1` (centres undefined) the Activity [5] was “Active”, the IC50 (Plasmodium falciparum) was 3 nM and the Activity [6] was “Active”.
For `O=C(CC1CCC2(CC1)OOC1(OO2)C2CC3CC(C2)CC1C3)N1CCOCC1` (centres undefined), the IC50 (Plasmodium falciparum) was 5.2 nM and the Activity [3] was “Active”.
In the case of `C[C@@H]1CC[C@H]2[C@@H](C)C(=O)O[C@@H]3O[C@@]4(C)CC[C@@H]1[C@]32OO4` [ARTEMISININ], the Activity [6] is reported as “inactive” and the Activity [4] is reported as 70%.
With `CC(CN1CCNCC1)C(=O)CC1CCC2(CC1)OOC1(OO2)C2CC3CC(C2)CC1C3` (centres undefined) the IC50 (Plasmodium falciparum) was 1.4 nM, the Activity [7] was “Active” and the Activity [8] was “Active”. The Activity [1] was “Active”, the Stability [2] was “Unstable” and the Activity [9] was “Active”. For the same compound, the Activity [3] was “Active”, the Activity [10] was “Active” and the Activity [4] was 53%. For the same compound, the Activity [11] was “Active”.
With `CCOC(=O)CC1CCC2(CC1)OOC1(OO2)C2CC3CC(C2)CC1C3` (centres undefined) the IC50 (Plasmodium falciparum) was 10 nM and the Activity [9] was “Active”.
For `O=C(CC1CCC2(CC1)OOC1(OO2)C2CC3CC(C2)CC1C3)NC1CC1` (centres undefined), the IC50 (Plasmodium falciparum) was 2.3 nM and the Activity [9] was “Active”.
In the case of `CC(C)(N)CNC(=O)C[C@H]1CC[C@]2(CC1)OO[C@]1(O2)C2CC3CC(C2)CC1C3` [OZ277], the Activity [11] is reported as “Active”.
In the case of `CN1CCN(C2CCN(C(=O)C[C@H]3CC[C@]4(CC3)OO[C@]3(O4)C4CC5CC(C4)CC3C5)CC2)CC1`, the IC50 (Plasmodium falciparum) is reported as 0.5 nM, the Activity [1] is reported as “Active” and the Stability [2] is reported as “Unstable”.
